Experimental findings from paper PMC5125615 (Biochemistry, 2015) are described below.

Residue numbers refer to the chain shown, from its start.

Assay [1] deals with T1, RsTSPO (Cereibacter sphaeroides, UniProt Q9RFC8, A136L/A138F/T137A).
T1 sequence (Q9RFC8 1-158 A136L/T137A/A138F): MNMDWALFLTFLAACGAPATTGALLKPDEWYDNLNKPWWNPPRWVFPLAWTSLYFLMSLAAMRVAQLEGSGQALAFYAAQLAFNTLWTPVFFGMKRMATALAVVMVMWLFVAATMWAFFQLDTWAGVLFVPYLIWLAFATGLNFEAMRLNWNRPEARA
Description: fluorescence quenching. It is filed as binding.

Assay [2] has as its target T2, RsTSPO (Cereibacter sphaeroides, UniProt Q9RFC8).
T2 sequence (Q9RFC8 1-158): T1 sequence (Q9RFC8 1-158 A136L/T137A/A138F) with L136A, A137T, F138A
Kind of assay: fluorescence quenching. Conditions: affinity value, symbol not given. Type of assay: binding.

Assay [3] concerns the target T2, RsTSPO. Description: binding to purified protein. Particulars: affinity value, symbol not given.
The target of assay [4] is T1, RsTSPO. Description: binding to purified protein.
Assay [5] deals with T2, RsTSPO. Kind of assay: binding to purified protein.
The target in assay [6] is T1, RsTSPO. Kind of assay: binding to purified protein. This is another data set of the same source.

As for `CCC(C)N(C)C(=O)c1cc2ccccc2c(-c2ccccc2Cl)n1` (stereo not drawn) [PK11195], the Kd – broadly, the equilibrium constant for the complex coming apart – at RsTSPO [1] is 15 ± 4 µM; on RsTSPO [2], 10 ± 1 µM.

In the case of `C=CC1=C(C)c2cc3[nH]c(cc4nc(cc5[nH]c(cc1n2)c(C)c5CCC(=O)O)C(CCC(=O)O)=C4C)c(C)c3C=C` [protoporphyrin IX], the dissociation constant (Kd) at RsTSPO [3] amounted to 0.31 ± 0.01 µM; at RsTSPO [4], 1.1 ± 0.1 µM.

Turning to `CC(C)CCC[C@@H](C)[C@H]1CC[C@H]2[C@@H]3CC=C4C[C@@H](O)CC[C@]4(C)[C@H]3CC[C@]12C` [cholesterol], the dissociation constant (Kd) at RsTSPO [5] was roughly 80 µM; at RsTSPO [6], roughly 0.02 µM.
